Results: article PMC11449324, “Functional comparison of human and murine equilibrative nucleobase transporter 1” (PLOS ONE, 2024)

Legend:
HEK293-EV cells = assay: MTT cell viability assay, HEK293-EV; assay type: cell-based, human; settings: 48 h; for EC50: Homo sapiens, first-phase EC50 where biphasic
Experimental: (§1) Transfected-HEK293, MOLT-4, and L1210 cells were seeded into 24-well plates at a density of 1.1x10^5 cells per well in complete culture medium. […] Medium containing no cells was used to determine spontaneous MTT reduction (background). In transfected-HEK293 cells, media was removed via a vacuum-powered aspirator and replaced with 150 μL of Dulbecco’s phosphate buffered saline (DPBS—137 mM NaCl, 2.7 mM KCl, 6.3 mM Na2HPO4, 1.5 mM KH2PO4, 0.5 mM MgCl2, 0.9 mM CaCl2, pH 7.4) containing MTT (1 mg/mL) for 90 minutes at 37°C. In MOLT-4 and L1210, cell suspension was transferred to 1.5 mL microcentrifuge tubes and centrifuged for 10 minutes at 3000 rcf. Following centrifugation, media was removed via gentle pipetting and replaced with 150 μL of DPBS containing MTT (1 mg/mL) for 90 minutes at 37°C. Microcentrifuge tubes were centrifuged again for 15 minutes at 23,500 rcf, and then DPBS containing MTT was removed via a vacuum-powered aspirator. The resultant formazan crystals were solubilized in 500 μL of DMSO and transferred to a 96-well plate in 200 μL duplicates. Absorbance was measured at 570 nm, in a SpectraMax® i3x Multi-Mode Detection Platform (Molecular Devices, San Jose, CA). After background subtraction, % cell viability was calculated as the ratio of absorbance in the presence of test compound to that measured with vehicle alone (X 100).

HEK293-mslc43a3 cells = assay: MTT cell viability assay, HEK293-mslc43a3; assay type: cell-based, human; settings: for EC50: Homo sapiens, first-phase EC50 where biphasic
Experimental: as §1

HEK293-hSLC43A3 cells = assay: MTT cell viability assay, HEK293-hSLC43A3; assay type: cell-based, human; settings: for EC50: Homo sapiens, first-phase EC50 where biphasic
Experimental: as §1

ENBT1 = settings: previous findings ref 14; cited from earlier work
[1] = substrate: Nc1ncnc2nc[nH]c12; assay: Radiolabelled substrate uptake (oil-stop, 2 s) in HEK293-hSLC43A3 cells; assay type: cell-based, human; settings: other: HEK293-hSLC43A3 minus HEK293-EV, 2 seconds, room temperature, 10 μM dipyridamole; pH 7.4
Experimental: (§2) Harvested cells were suspended in nominally sodium-free N-methyl-D-glucamine (NMG) buffer (140 mM NMG, 5 mM KCl, 4.2 mM KHCO3, 0.36 mM K2HPO4, 0.44 mM KH2PO4, 0.5 mM MgCl2, 1.3 mM CaCl2, 10 mM HEPES, pH 7.4), to minimize potential contribution of sodium-dependent concentrative nucleoside transporter-mediated uptake. Additionally, cells were incubated for 15 minutes at room temperature with 10 μM dipyridamole (DY), an equilibrative nucleoside transporter (ENT) inhibitor, to block equilibrative nucleoside transporter–mediated uptake. The substrate uptake assay was initiated by adding 250 μL cell suspension to 250 μL [^3H] labeled substrate, layered over 21:4 silicone:mineral oil (200 μL) in 1.5 mL microcentrifuge tubes (conducted at room temperature). The uptake reaction was terminated after 2 seconds by centrifugation of the cells through the oil layer at ~10,000 g. […] The resulting cell pellet was digested in 250 μL 1 M NaOH overnight (~16 hours), with 220 μL aliquots of digested cells assessed for radioactive content using standard liquid scintillation counting techniques in a Beckman Coulter LS6500 scintillation system (Brea, CA).
(§3) In transfected-HEK293 cell lines, total uptake was defined as uptake of radiolabeled substrate in cells overexpressing recombinant hENBT1 or mENBT1. […] ENBT1-mediated uptake was calculated as total uptake minus the non-mediated uptake. […]

[2] = substrate: Sc1ncnc2nc[nH]c12; assay: cells, lysate or membranes; settings: pH 7.4
[3] = substrate: Nc1ncnc2nc[nH]c12; assay: Radiolabelled substrate uptake (oil-stop, 2 s) in HEK293-mslc43a3 cells; assay type: cell-based, mouse; settings: other: HEK293-mslc43a3 minus HEK293-EV, 2 seconds, room temperature, 10 μM dipyridamole; pH 7.4
Experimental: as §2, §3

[4] = other: HEK293-hSLC43A3 minus HEK293-EV, 2 seconds, room temperature, 10 μM dipyridamole
[5] = other: HEK293-mslc43a3 minus HEK293-EV, 2 seconds, room temperature, 10 μM dipyridamole

`CSc1ncnc2nc[nH]c12` [6-MeMP, 6-Methylmercaptopurine] showed an EC50 (HEK293-EV cells) of 45 ± 7 µM, an EC50 (HEK293-mslc43a3 cells; HEK293-mslc43a3, 48 h, MTT) of 42 ± 6 µM and an EC50 (HEK293-hSLC43A3 cells; HEK293-hSLC43A3, 48 h, MTT) of 79 ± 2 µM. The “effect on 6-MP uptake by ENBT1” value (ENBT1) was “inhibited”.

For `Nc1nc2nc[nH]c2c(=S)[nH]1` [6-TG, 6-thioguanine], the EC50 (HEK293-EV cells) was 16 ± 4.3 µM, the “shift in EC50 (increased sensitivity) relative to HEK293-EV cells” value (HEK293-mslc43a3 cells; HEK293-mslc43a3 vs HEK293-EV) was 5 fold and the EC50 (HEK293-mslc43a3 cells; HEK293-mslc43a3, 48 h, MTT) was 3.4 ± 1.1 µM. For the same molecule, the “shift in EC50 (increased sensitivity) relative to HEK293-EV cells” value (HEK293-hSLC43A3 cells; HEK293-hSLC43A3 vs HEK293-EV) was 5 fold, the EC50 (HEK293-hSLC43A3 cells; HEK293-hSLC43A3, 48 h, MTT) was 3.4 ± 0.9 µM and the “effect on 6-MP uptake by ENBT1” value (ENBT1) was “competitively inhibits”.

In the case of `O=c1[nH]c(=S)c2[nH]c(=O)[nH]c2[nH]1` [6-TU, 6-Thiouric acid], the “effect on cell viability” value (HEK293-EV cells) is reported as “minimal effect”, the “effect on cell viability” value (HEK293-mslc43a3 cells; HEK293-mslc43a3, 48 h, MTT) is reported as “minimal effect” and the “effect on cell viability” value (HEK293-hSLC43A3 cells; HEK293-hSLC43A3, 48 h, MTT) is reported as “minimal effect”.

B1: hENBT1 (SLC43A3-encoded human ENBT1) (Homo sapiens) (protein)
chain: MAGQGLPLHVATLLTGLLECLGFAGVLFGWPSLVFVFKNEDYFKDLCGPDAGPIGNATGQADCKAQDERFSLIFTLGSFMNNFMTFPTGYIFDRFKTTVARLIAIFFYTTATLIIAFTSAGSAVLLFLAMPMLTIGGILFLITNLQIGNLFGQHRSTIITLYNGAFDSSSAVFLIIKLLYEKGISLRASFIFISVCSTWHVARTFLLMPRGHIPYPLPPNYSYGLCPGNGTTKEEKETAEHENRELQSKEFLSAKEETPGAGQKQELRSFWSYAFSRRFAWHLVWLSVIQLWHYLFIGTLNSLLTNMAGGDMARVSTYTNAFAFTQFGVLCAPWNGLLMDRLKQKYQKEARKTGSSTLAVALCSTVPSLALTSLLCLGFALCASVPILPLQYLTFILQVISRSFLYGSNAAFLTLAFPSEHFGKLFGLVMALSAVVSLLQFPIFTLIKGSLQNDPFYVNVMFMLAILLTFFHPFLVYRECRTWKESPSAIA
notes: Oligonucleotides corresponding to the coding region of SLC43A3 (NM_001278201) or slc43a3 (NM_021398); expressed in transfected cells; HEK293-hSLC43A3
B1 showed a Km [1] of 93 ± 24 µM, a Vmax [1] of 56 ± 6 pmol/µL/s and a Km [2, 4] of 269 ± 67 µM. For the same molecule, the Vmax [2, 4] was 121 ± 16 pmol/µL/s.

B2: endogenous ENBT1 expressed in MOLT-4 cells (Homo sapiens) (protein)
chain: B1 chain
B2 gave a Km ([2]; other: MOLT-4, 2 seconds) of 115 ± 68 µM.

B3: mENBT1 (slc43a3-encoded mouse ENBT1) (Mus musculus) (protein)
chain: MASKGLPLYLATLLTGLLECIGFAGVLFGWTSLLFVFKAENYFSEPCEQDCLLQSNVTGPSDLKAQDEKFSLIFTLASFMNNFMTFPTGYIFDRFKTTVARLIAIFFYTCATIIIAFTSANTAMLLFLAMPMLAVGGILFLITNLQIGNLFGKHRSTIITLYNGAFDSSSAVFLVIKLLYEQGISLRSSFIFMSVCSVWHIARTFLLMPKGHIPYPLPPNYSYGLCSRFGASKKENKAAEHETKELRSKECLPPKEENSGPEQQQQQEQQQQQQQQQEQHEQHSFRRCALSRRFILHVVWLSIIQLWHYLFIGTLNSLLTKLSGGDKVEVSAYTNAFAITQFFGVLCAPWNGLLMDRLKQKYQKAAKRTGSSSEAVALCSMVPSLALTSLLSLGFALCASIPVMQLQYATFILQVVSRSFLYGCNAAFLTLAFPSEHFGKLFGLVMALSAIVSLLQFPLFKVSPESNAVYVSMGLAIFLTLVHPFLVYRECRAEKTKSSVDA
notes: Oligonucleotides corresponding to the coding region of SLC43A3 (NM_001278201) or slc43a3 (NM_021398); expressed in transfected cells; HEK293-mslc43a3
B3 gave a Km [2, 5] of 253 ± 39 µM, a Vmax [2, 5] of 144 ± 12 pmol/µL/s and a Km [3] of 86 ± 22 µM. The Vmax [3] was 62 ± 6 pmol/µL/s.

B4: endogenous ENBT1 expressed in L1210 cells (Mus musculus) (protein)
chain: B3 chain
For B4, the Km ([2]; other: L1210, 2 seconds) was 272 ± 91 µM.
